Data: paper PMC6778101 (Nature Communications, 2019)
Read-outs that look alike come from different tables or passages of the source. Ends that are not written are not given here.

Legend:
Format in all cases: cell-based, Escherichia coli
E. coli K-12 BW25113 = assay: microbe, parasite or virus in culture
Text: Unless otherwise indicated, Minimal Salt (MS) medium was used in all experiments, including the laboratory evolution experiments. In line with previous, methodologically relevant laboratory evolution studies, the physical conditions (including the medium) were the same during the course of laboratory evolution and all forthcoming assays on the resulting resistant lines (e.g. MIC measurements). We previously optimized this medium for studying AMPs (1 g L^−1 (NH4)2SO4, 3 g L^−1 KH2PO4 and 7 g L^−1 K2HPO4 supplemented with 0.1 mM MgSO4, 0.54 µg mL^−1 FeCl3, 1 µg mL^−1 thiamine hydrochloride, 0.2% Casamino acids and 0.2% glucose)[19]. This medium is highly controlled and provides a reproducible environment for experimental evolution experiments. All components were obtained from Sigma-Aldrich.
MICs were determined using a standard serial broth dilution technique. Briefly, 11-step serial dilutions were prepared in 96-well microtiter plates with three replicates per strain and antimicrobial compound. Each experiment was repeated at least twice. 5 × 10^5 cells/mL were inoculated into each well, and the plates were incubated at 30 °C in case of E. coli K-12 BW25113, and its antibiotic and AMP-adapted lines, or 37 °C in case of the other bacterial species. […] Cell growth was monitored by measuring the optical density (OD600 value, Biotek Synergy 2 microplate reader was used for this purpose). […] Relative MIC was calculated as follows: MICrelative = MICevolved/MICcontrol.

E.coli K-12 BW25113 = details: for MIC (freshly prepared AMP): plates inoculated immediately; for MIC (pre-incubated AMP): plates pre-incubated 72 hours before inoculation
Experimental: MICs were determined using a standard serial broth dilution technique. Briefly, 11-step serial dilutions were prepared in 96-well microtiter plates with three replicates per strain and antimicrobial compound. Each experiment was repeated at least twice. 5 × 10^5 cells/mL were inoculated into each well, and the plates were incubated at 30 °C in case of E. coli K-12 BW25113, and its antibiotic and AMP-adapted lines, or 37 °C in case of the other bacterial species. Plates were shaken at 300 r.p.m. during incubation for 24 and 18 h, respectively. Cell growth was monitored by measuring the optical density (OD600 value, Biotek Synergy 2 microplate reader was used for this purpose). […] Relative MIC was calculated as follows: MICrelative = MICevolved/MICcontrol.
Supplementary Table 7- Effect of incubation time on the minimum inhibitory concentration (MIC) of AMPs. We tested whether the prolonged incubation time can affect the MIC of AMPs. To test this, two sets of AMP containing MIC plates were prepared in parallel. The first set was immediately inoculated with E.coli K-12 BW25113, while the second set was pre-incubated 72 hours before inoculation with the […]
observed in the MIC between freshly prepared and pre-incubated plates. […]

[1] = system: E. coli K-12 BW25113 carrying ASKA plasmids; assay: microbe, parasite or virus in culture; details: MS medium + 10 µg mL−1 CHL + 500 µM IPTG, 5 × 10^5 cells, 16–18 h, 37 °C; for MIC: Escherichia coli
Text: Bacterial gene amplification generates extensive genetic variation that can provide drug resistance[37],[38]. As gene amplification events tend to be genetically unstable and reduce bacterial fitness, they are transient in nature. Using the ASKA library, which comprises each E. coli ORF cloned into an expression vector[40], we have conducted a global survey to evaluate whether artificially amplified genes provide resistance to any of the 14 AMPs and 11 antibiotics tested. As chloramphenicol (CHL) was used as a selection marker for the ASKA plasmid, this antibiotic was not tested in this screen. E. coli K-12 BW25113 cells were transformed with the pooled plasmids of the ASKA library, and the genetically mixed populations were exposed to increasing levels of AMP or antibiotic stresses, respectively. In all cases, the employed AMP or antibiotic dosages were above the MIC of the wild type. For each drug, we identified the MIC provided in the pooled ASKA plasmid library, and compared it to the MIC of the wild-type strain carrying the empty ASKA plasmid.
The ASKA library (a complete set of E. coli K-12 ORF archive) includes every E. coli ORF cloned into an expression vector (pCA24N)[65]. Prior to screening, the ASKA plasmid collection was pooled and transformed into E. coli K-12 BW25113 strain[66]. The plasmid pool was created by pooling an equal aliquot of cells, each carrying different members of the ASKA library, followed by plasmid miniprep. Next, the plasmid pool was electroporated into E. coli K-12 BW25113 competent cells. […] For the MICs measurements 500 000 cells were inoculated in each well which represents ~100 times coverage of each library member. […] Prior to the measurements the cell population containing the pooled overexpression library or the control strain containing the empty vector were grown in three replicates in LB medium supplemented with 20 µg/mL CHL. As the culture reached high density (i.e., OD600 > 0.8), expression of the plasmid was induced by 50 µM IPTG for 1 h. Following induction, 5 × 10^5 bacterial cells were inoculated in three replicates into each well of the 96-well plate and incubated for 16–18 h at 37 °C. Following incubation the MIC values were determined by measuring optical densities in a plate reader (Biotek Synergy).

[2] = system: antibiotic- and AMP-adapted E. coli K-12 BW25113 lines; assay: High-throughput fitness measurement of adapted lines (area under growth curve, drug-free medium); details: adapted line APC1
Text: We estimated fitness by measuring growth of these strains and the corresponding wild-type in antibiotic-free medium (“Methods”). […] As might be expected, fitness costs varied substantially across antibiotics and AMPs (Fig. 1b). […] This pattern is unlikely to reflect differences in the level of resistance between AMP and antibiotic strains, respectively. There is only a weak, marginally significant negative correlation between the level of resistance and fitness cost (Supplementary Fig. 1, Spearman’s rho = −0.24, P = 0.016 (N = 98)), and this correlation becomes non-significant after controlling for drug type (P = 0.6 and P = 0.39 for antibiotics (N = 60) and AMPs (N = 38) respectively, Spearman’s correlation).
Bacterial cell growth was assayed by continuously monitoring the optical density (OD600) of liquid cultures using 384-well microtiter plates containing MS medium, the same medium used during the laboratory evolution. Fitness was measured for a total of 60 antibiotic-adapted and the 38 AMP-adapted E. coli K-12 BW25113 lines (at least four lines per antibiotic or AMP). All measurements were performed twice (six technical replicates per experiment). Starter cultures were inoculated into 96-well plates containing MS medium and incubated for 20 h at 30 °C for E. coli K-12 BW25113 and its evolved lines. After this growth period, the OD600 of each culture was read and the starting cell number set to a final of 50,000 cells per well to a final volume of 60 µl. A total of 384-well plates were inoculated combining four different 96-well starter plates together: one plate having the unevolved wild-type control as a reference strain in all wells in order to estimate possible variation in growth within-plate measurement causing biases to the reading, and three plates containing the different set of antibiotic or AMP-adapted lines. Cell growth was monitored by measuring the optical density at 600 nm every 5 min (OD600 value, Biotek Synergy 2 microplate reader was used for this purpose). The integral data was calculated by the Biotek Gen5 Data Analysis Software between 1 and 24 h in case of E. coli K-12 BW25113 adapted lines. Because of possible influence of temperature equilibration in the first hour of measurement, this time period was excluded from the analysis.

[3] = starting wild-type strain of the evolution experiment, broth dilution, MS medium, 5 × 10^5 cells/mL, 30 °C, 24 h, MIC = OD600 < 0.05
[4] = time allowed for bacterial growth 48 hours
[5] = time allowed for bacterial growth 24 hours
[6] = time allowed for bacterial growth 72 hours
[7] = replicate 1 (first line of the sheet)

Molecule	MIC (E. coli K-12 BW25113; [3])	MIC (freshly prepared AMP) (E.coli K-12 BW25113; [4])	MIC (pre-incubated AMP) (E.coli K-12 BW25113; [5])	MIC (pre-incubated AMP) (E.coli K-12 BW25113; [4])	MIC (pre-incubated AMP) (E.coli K-12 BW25113; [6])	MIC value of E. coli K-12 BW25113 carrying the empty plasmid of the ASKA library ([1]; Replicate 1)	MIC value of E. coli K-12 BW25113 carrying the pooled plasmids of the ASKA library ([1]; Replicate 1)	MIC value of E. coli K-12 BW25113 carrying the empty plasmid of the ASKA library ([1]; Replicate 2)	MIC value of E. coli K-12 BW25113 carrying the pooled plasmids of the ASKA library ([1]; Replicate 2)	MIC value of E. coli K-12 BW25113 carrying the empty plasmid of the ASKA library ([1]; Replicate 3)	MIC value of E. coli K-12 BW25113 carrying the pooled plasmids of the ASKA library ([1]; Replicate 3)	further results
CC[C@H](C)[C@H](NC(=O)[C@H](CCCCN)NC(=O)[C@H](CCC(=O)O)NC(=O)[C@H](CCCCN)NC(=O)[C@H](CO)NC(=O)[C@H](CCCCN)NC(=O)[C@H](CCCNC(=N)N)NC(=O)[C@H](Cc1ccccc1)NC(=O)[C@H](Cc1ccccc1)NC(=O)[C@H](CC(=O)O)NC(=O)CNC(=O)[C@H](CC(C)C)NC(=O)[C@@H](N)CC(C)C)C(=O)NCC(=O)N[C@@H](CCCCN)C(=O)N[C@@H](CCC(=O)O)C(=O)N[C@@H](Cc1ccccc1)C(=O)N[C@@H](CCCCN)C(=O)N[C@@H](CCCNC(=N)N)C(=O)N[C@H](C(=O)N[C@H](C(=O)N[C@@H](CCC(N)=O)C(=O)N[C@@H](CCCNC(=N)N)C(=O)N[C@H](C(=O)N[C@@H](CCCCN)C(=O)N[C@@H](CC(=O)O)C(=O)N[C@@H](Cc1ccccc1)C(=O)N[C@@H](CC(C)C)C(=O)N[C@@H](CCCNC(=N)N)C(=O)N[C@@H](CC(N)=O)C(=O)N[C@@H](CC(C)C)C(=O)N[C@H](C(=O)N1CCC[C@H]1C(=O)N[C@@H](CCCNC(=N)N)C(=O)N[C@H](C(=O)N[C@@H](CCC(=O)O)C(=O)N[C@@H](CO)C(=O)O)[C@@H](C)O)C(C)C)[C@@H](C)CC)C(C)C)[C@@H](C)CC [LL37, cathelicidin antimicrobial peptide LL-37]	100 µg/mL	17.4 µg/mL	17.4 µg/mL	17.4 µg/mL	17.4 µg/mL	14.45 µg/mL	14.45 µg/mL	12.04 µg/mL	17.34 µg/mL	14.45 µg/mL	14.45 µg/mL	–
RFRPPIRRPPIRPPFYPPFRPPIRPPIFPPIRPPFRPPLGPFP [BAC5, Bactenecin 5]	7 µg/mL	14.5 µg/mL	14.5 µg/mL	14.5 µg/mL	14.5 µg/mL	5.79 µg/mL	4.82 µg/mL	5.79 µg/mL	5.79 µg/mL	5.79 µg/mL	4.82 µg/mL	MIC (freshly prepared AMP) (E.coli K-12 BW25113; [5]): 14.5 µg/mL; MIC (freshly prepared AMP) (E.coli K-12 BW25113; [6]): 14.5 µg/mL
CC1(C)S[C@@H]2[C@H](NC(=O)[C@H](N)c3ccccc3)C(=O)N2[C@H]1C(=O)O [APC, Ampicillin]	–	–	–	–	–	–	–	–	–	–	–	MIC (E. coli K-12 BW25113; Escherichia coli, BW25113, 24 h, read-out: MIC): 6.2 µg/mL; MIC ([1]; BW25113, Replicate 1, read-out: MIC value of E. coli K-12 BW25113 carrying the empty plasmid of the ASKA library): 4 µg/mL; MIC ([1]; BW25113, Replicate 1, read-out: MIC value of E. coli K-12 BW25113 carrying the pooled plasmids of the ASKA library): 256 µg/mL; MIC ([1]; BW25113, Replicate 2, read-out: MIC value of E. coli K-12 BW25113 carrying the empty plasmid of the ASKA library): 4 µg/mL; MIC ([1]; BW25113, Replicate 2, read-out: MIC value of E. coli K-12 BW25113 carrying the pooled plasmids of the ASKA library): 256 µg/mL; MIC ([1]; BW25113, Replicate 3, read-out: MIC value of E. coli K-12 BW25113 carrying the empty plasmid of the ASKA library): 4 µg/mL; MIC ([1]; BW25113, Replicate 3, read-out: MIC value of E. coli K-12 BW25113 carrying the pooled plasmids of the ASKA library): 256 µg/mL; integral (measured integral data) [2, 7]: 10905.8; normalized integral (integral normalized to wild-type) [2, 7]: 0.2843; integral (measured integral data) ([2]; replicate 2): 12217.4; normalized integral (integral normalized to wild-type) ([2]; replicate 2): 0.3185; integral (measured integral data) ([2]; replicate 3): 11200; normalized integral (integral normalized to wild-type) ([2]; replicate 3): 0.292; integral (measured integral data) ([2]; replicate 4): 11338.5; normalized integral (integral normalized to wild-type) ([2]; replicate 4): 0.2956; integral (measured integral data) ([2]; replicate 5): 13182.1; normalized integral (integral normalized to wild-type) ([2]; replicate 5): 0.3436
